These results are taken from patent publication US20120094939A1, “ANTI-VIRAL COMPOUNDS, COMPOSITIONS AND METHODS” (priority 2007, published 2012).

Series [1] relates to Huh7/Rep-Feo HCV replicon (HCV RNA replication). It is filed as cell-based, Hepatitis C virus (strain HCV—N, genotype 1b). Conditions: for R-CompZ, compositeZ score for reporter gene assay: Table 2 antiviral hits of DOS set, 48 hours. The text has this:
Development of the Huh7/Rep-Feo replicon assay. […] This replicon was derived from a chimpanzee infectious clone (strain HCV—N, genotype 1b). In this replicon, the structural genes have been replaced by a reporter gene. The chimeric reporter gene Feo encodes the firefly luciferase protein fused in-frame with neomycin phosphotransferase. This Huh7/Rep-Feo cell supports high levels of autonomous HCV RNA replication because it was derived from the HCV—N strain, which carries an adaptive mutation in NSSA that confers highlevel replication in tissue culture. Furthermore, the level of luciferase correlates well with levels of HCV RNA production, so that luciferase can be used as a reliable surrogate marker for HCV replication. The use of luciferase as a reporter permits quantitative and highthroughput detection of HCV replication levels. The specific use of firefly luciferase makes this replicon especially well-suited for automation, because the luciferase reagent can be added directly to the cell culture system prior to signal detection without the need for cell lysis, washing, or aspiration.
HCV Replicon System-Primary Screening. […] Briefly, this replicon harbors a subgenomic HCV genotype 1b sequence, fused to firefly luciferase, stably replicating under neomycin selection. Cells were propagated in Dulbecco's Modified Eagle's medium (DMEM) containing 10% fetal bovine serum (FBS) supplemented with 1% penicillin-streptomycin, and 500 μg of Geneticin (Invitrogen Corp., Carlsbad, Calif.)/mL. Cells were cultured in a 37° C., 5% CO2-humidified incubator for all experiments. To decrease day-today variability in the assay, a large homogenous population of subconfluent cells was passaged so that a similar lot of cells could be used throughout the HTS assay.
(§1) Primary Screening-HTS. Information about the library of known bioactive compounds that was screened and the general automated HTS protocol is available at http://www.broad.harvard.edu/chembio/index.html (see FIG. 10 for list of primary HTS with known bioactives library). Based on the results of optimization experiments in the 384-well plate format, the general HTS protocol was adapted as follows. Unless otherwise indicated, cells were incubated at all times in a humidified environment with 5% CO2 at 37° C. The assay was initiated by plating 30 μL of medium containing 2000 cells/well into white 384-well opaque-bottom plates (Nunc, Rochester, N.Y.) using an automated plate filler (Bio-Tek uFiller; Winsooki, Vt.) and allowing the cells to adhere for 24 hours. One hundred nL of compound stock solutions in DMSO was transferred from stock plates into the 384-well assay plates using an automated pin-based compound transfer robot (CyBio CyBi-Well vario; Woburn, Mass.). The final compound concentration in each well was estimated to be approximately 10-50 μM, with most compounds at 33 μM. The wells contained 0.33% DMSO by volume. The cells were then incubated for another 48 hours. The luminescent signal from each plate was detected using an automated plate reader (Perkin-Elmer Envision 1; Wellesley, Mass.). This screen was performed in duplicate. For negative controls, entire DMSO-treated control plates were employed, in addition to DMSO-only control wells that were incorporated into each compound assay plate. The cells were assayed for luciferase activity using the Bright-Glo Luciferase assay system (Promega), following the manufacturer's instructions. As a counter-screen, cell viability was assessed using the CellTiterGlo Luminescent cell viability assay (Promega) following the manufacturer's instructions.
Computational Data Analysis-Primary Screening. For each replicate, a mock-treatment distribution based on the total population of mock (DMSO) controls in that replicate was built (FIG. 11).
For orientation: A reporter such as luciferase makes a cellular process visible.

Series [2] concerns Huh7/Rep-Feo cells. The experiment in a line: Primary HTS cell viability counter-screen (CellTiterGlo). Conditions: Table 2 antiviral hits of DOS set; approximately 10-50 μM, most at 33 μM; 48 hours. It is filed as cell-based, human. The procedure:
as §1
Computational Data Analysis-Primary Screening. For each replicate, a mock-treatment distribution based on the total population of mock (DMSO) controls in that replicate was built (FIG. 11). Each compound was independently assigned a sign (ie, “+” or “−”) Z-score. Z-scores are calculated by dividing each background-subtracted, compound-treated well by the global standard deviation. A global standard deviation of the background-subtracted, mock-treated wells is calculated over the entire experiment. This distribution was determined to be consistent with experimental noise observed under cell-based assay conditions. The resulting collection of continuousvalued Z-scores represents the primary data set to be used for further analysis. The composite Z-score was calculated as a vector projection of each Z-score in duplicate onto an imaginary line of perfect reproducibility. Reproducibility is the cosine of the angle between each Z-score and that imaginary line; it is dimensionless and ranges from −1 to +1. […] The primary data were analyzed using the commercial software packages Pipeline Pilot (SciTegic, San Diego, Calif.) and SpotFire (SpotFire, Inc., Somerville, Mass.). The means of the negative, DMSO-only controls were considered the zero point.
Primary Screening—HTS: Unless otherwise indicated, cells were incubated at all times in a humidified environment with 5% CO2 at 37° C. The assay was initiated by plating 30 μl of medium containing 2,000 cells/well into white 384-well opaque-bottom plates (Nunc; Rochester, N.Y.) using an automated plate filler (Bio-Tek μFiller; Winsooki, Vt.) and allowing the cells to adhere for 24 hours. 100 nl of compound stock solutions in DMSO were transferred from stock plates into the 384-well assay plates using an automated pin-based compound transfer robot (CyBio CyBi-Well vario; Woburn, Mass.). The final compound concentration in each well was estimated to be approximately 10-50 μM, with most compounds at 33 μM. The wells contained 0.33% DMSO by volume. The cells were then incubated for another 48 hours. […]
(Counterscreens check selectivity or assay interference.)

Series [3] has as its system OR6 cells harboring full-length genotype 1b HCV replicon ORN/C-5B/KE (HCV RNA replication). The experiment in a line: microbe, parasite or virus in culture. It is filed as cell-based, Hepatitis C virus (strain HCV—O. The note with it: for antiviral activity (in words) / proviral effect on HCV replication (in words): OR6 full-length replicon; for proviral effect on HCV replication (in words): 0.1-100 μM. The text has this: HCV Replicon System-Secondary Assays. For validation, OR6 cells stably harboring the full-length genotype 1 replicon, ORN/C-5B/KE9 were used to examine compound activity in a more authentic viral polyprotein context. This replicon was derived from the 1B-2 strain (strain HCV—O, genotype 1b), in which the Renilla luciferase gene is introduced as a fusion protein with neomycin to facilitate the monitoring of HCV replication. This construct contains a tissue culture adaptive mutation in the NS3 region. Cells were cultured in an identical manner to the Huh7/Rep-Feo cells.
Secondary Assays-Hit Validation. Several hits from primary HTS, as well as functionally related compounds, were purchased from Sigma (St. Louis, Mo.), Calbiochem (San Diego, Calif.), and Microsource (Gaylordsville, Conn.). […] Ten mM of stock solutions of the individual compounds to be tested was prepared in the appropriate solvent (DMSO, ethanol, or H2O, according to the manufacturer's information) and stored at −20° C. Cells were seeded into 96-well plates at a density of 2000 cells/well in 100 μL of medium. The cells were incubated for 24 hours at 37° C. to obtain the optimal level of adherence. Solutions of candidate hit compounds were added to wells to achieve final concentrations of 0.1, 1, 10, 50, and 100 μM. The final concentration of DMSO or ethanol in every well was 1% or less by volume. Mock solutions were used as a negative control. PEG-IFN and ribavirin were used as positive controls at various concentrations, alone and in combination. The plates were then incubated at 37° C. with 5% CO2 for 48 hours before they were analyzed. Luminescent signal was generated using the Renilla luciferase assay kit (Promega) according to the manufacturer's instructions. Signal was then detected using a LumiCount (Packard BioScience Company) luminometer. Cell viability was assessed using CellTiter-Glo (Promega), following the manufacturer's instructions. All experiments were performed in triplicate.
Secondary Assays-Data Analysis. Values were presented as a percentage of mock treated control, which was arbitrarily set at 100%. Data were expressed as the mean (±) SD. […] Synergy calculations were performed using CalcuSyn (Biosoft; Cambridge, England).
HCV Replicon System—Secondary Assays: For replicon validation, OR6 cells stably harboring the full-length genotype 1 replicon, ORN/C-5B/KE were used (Burke J. Am. Chem. Soc. (2004) 126:14095-14104). This replicon was derived from the 1B-2 strain (strain HCV—O, genotype 1b), in which the Renilla luciferase gene is introduced as a fusion protein with the Neomycin resistance cassette to facilitate the monitoring of HCV replication. This construct contains a tissue culture adaptive mutation in the NS3 region. Cells were cultured in an identical manner to the Huh7/Rep-Feo cells.
Secondary Assays—Hit Validation: 10 mM of stock solutions of the individual compounds to be tested were prepared in DMSO and stored at −20° C. Cells were seeded into 96-well plates at a density of 2,000 cells/well in 100 μl of medium. The cells were incubated for 24 hours at 37° C. to obtain the optimal level of adherence. Solutions of candidate hit compounds were added to wells to achieve varying final concentrations between 0.01 and 100 μM. The final concentration of DMSO or ethanol in every well was 1% or less by volume. Mock solutions were used as a negative control. Peginterferon-alfa-2b (PEG-Intron; Schering Corp.; Kenilworth, N.J.) and ribavirin (Sigma; St. Louis, Mo.) were used as positive controls at various concentrations, alone and in combination. The plates were then incubated at 37° C. with 5% CO2 for 48 hours before they were analyzed. Luminescent signal was generated using the Renilla luciferase assay kit (Promega; Madison, Wis.) according to the manufacturer's instructions. Signal was then detected using a LumiCount™ (Packard BioScience Company; Downers Grove, Ill.) luminometer.
A general note: A replicon is a self-replicating genome or part of one, used to study replication in cells.

Where [4] appears, read: approximately 10-50 μM, most at 33 μM.
The mark [5] stands for this setting: known bioactives library, approximately 10-50 μM, most at 33 μM.

Structures are written as SMILES. pIC50: −log10 of the molar value. Where two headings read alike, the source gives them in different places.

Take `O=C1C2C=C(Br)C(CC2OCCCCCCO)[C@@]12CO2` (some centres unmarked) [SM_A1B2_1P32]: the “R-CompZ, compositeZ score for reporter gene assay” value in series [1] (setting [4]) is recorded as −3.252. The “C-CompZ, compositeZ score for cell viability assay” value in series [2] was 0.9925. Consider `C[C@@H](O/N=C1/[C@H]2CCn3c(=O)n(-c4ccccc4)c(=O)n3[C@H]2[C@H](O)[C@@H]2O[C@H]12)c1cn([C@H](CO)Cc2ccccc2)nn1` [BUCMLD-B10A14], for which the “R-CompZ, compositeZ score for reporter gene assay” value in series [1] (setting [4]) was −3.5069. The “C-CompZ, compositeZ score for cell viability assay” value in series [2] was determined as 1.128. In the case of `CC(C)c1c(C(=O)Nc2ccccc2)c(-c2ccccc2)c(-c2ccc(F)cc2)n1CC[C@@H](O)C[C@@H](O)CC(=O)O` [Atorvastatin, atorvastatin, reference compound], the “primary screen hit result (in words)” value in series [1] was “Antiviral”. Besides, the “antiviral activity (in words)” value in series [3] (48 hours) is “strong antiviral effects”. For `CC(C)C[C@H](NC(=O)OCC1c2ccccc2-c2ccccc21)C(=O)O` [N-(9-fluorenylmethoxycarbonyl)-L-leucine, reference compound], the “primary screen hit result (in words)” value in series [1] (setting [5]) was “proviral hit”; in series [1] (known bioactives library, approximately 10-50 μM, most at 33 μM, listed as N-9-fluorenylmethoxycarbonyl-L-leucine), “Proviral”. In addition, the “proviral effect on HCV replication (in words)” value (“proviral effect” below) in series [3] (48 hours) is recorded as “mild proviral activity”. For `CC(C)C1COc2cc3oc(=O)ccc3cc2O1` (centres unmarked) [dihydrobliquin, reference compound], the “primary screen hit result (in words)” value in series [1] (setting [5]) is reported as “Proviral”. Turning to `CC[C@H](C)C(=O)O[C@H]1C[C@@H](C)C=C2C=C[C@H](C)[C@H](CC[C@@H]3C[C@@H](O)CC(=O)O3)[C@H]21` [Lovastatin, lovastatin], the “antiviral activity (in words)” value in series [3] (48 hours) was “weakly inhibitory”. In the case of `C[C@]12C=CC(=O)C=C1CC[C@@H]1[C@@H]2[C@@H](O)C[C@@]2(C)[C@H]1CC[C@]2(O)C(=O)CO` [prednisolone], the “proviral effect” value in series [3] (48 hours) was “increased HCV replication”. On to `C[C@]12C=CC(=O)C=C1CC[C@H]1[C@@H]3C[C@@H](O)[C@](O)(C(=O)CO)[C@@]3(C)C[C@H](O)[C@@]12F` [Triamcinolone, triamcinolone, reference compound], for which, in series [1], the “primary screen hit result (in words)” value is “Proviral”. Besides, in series [3] (48 hours), the “proviral effect” value is recorded as “confirmed to increase HCV replication”. Consider `Oc1ccc(-c2nc(-c3ccc(F)cc3)c(-c3ccncc3)[nH]2)cc1` [SB 202109, reference compound], for which the “primary screen hit result (in words)” value in series [1] (setting [5]) was “inactive”. For the same compound, the “antiviral activity (in words)” value in series [3] (48 hours) was “inactive”. A word on the pIC50: it is −log10 of the IC50, conventionally taken in molar units. With `NC(=O)c1ncn([C@@H]2O[C@H](CO)[C@@H](O)[C@H]2O)n1` [ribavirin], the pIC50 in series [3] (Hepatitis C virus, OR6, 48 h, read-out: IC50 (HCV RNA replication, luciferase), OR6 full-length genotype 1b replicon, 48 hours) was 4.00 to 4.30.

For `CC1(C)C=Cc2cc3ccc(=O)oc3cc2O1` [xanthylentin, reference compound], the “primary screen hit result (in words)” value in series [1] (setting [5]) was “Proviral”. As to `COc1ccc(CCN(C)CCCC(C#N)(c2ccc(OC)c(OC)c2)C(C)C)cc1OC` (centres unmarked) [verapamil], in series [3] (48 hours), the “antiviral activity (in words)” value is given as “did not exhibit antiviral activity”. For `O=C1C2C=C(I)C(CC2OCCCCO)[C@@]12CCCO2` (some centres unmarked) [SM_A12B3], the “antiviral activity (in words)” value in series [3] (48 hours) was “negligible antiviral activity”. Take `CC(C)NCC(O)COc1cccc2ccccc12` (centres unmarked) [propranolol, reference compound]: the “primary screen hit result (in words)” value in series [1] is reported as “Antiviral”. With `CC(C)(O)[C@@H]1Cc2cc3ccc(=O)oc3cc2O1` [marmesin, reference compound], in series [1] (setting [5]), the “primary screen hit result (in words)” value was “Proviral”. For orientation: inhibition means the drop in the measured response relative to a control, in per cent. On to `CC[C@H](C)C(=O)O[C@H]1C[C@H](O)C=C2C=C[C@H](C)[C@H](CC[C@@H](O)C[C@@H](O)CC(=O)O)[C@H]21` [Pravastatin, pravastatin], for which the inhibition at 100 µM in series [3] (Hepatitis C virus, OR6, read-out: inhibition of HCV replication) is 30%.
